Test results taken from patent publication US10226482B2, “Copolymer and method for treatment of bacterial infection” (RECCE LIMITED, priority 2014, dated 2019).
Read-outs that look alike come from different tables or passages of the source.

Columns and labels:
[1] = tested on: E. coli; type: cell-based
Protocol: (§1) […] The inoculated test solutions, pH 6.5 to 7.0 were then incubated at 37° C. for sufficient time-periods such that approximately 10^2-10^3 cfu/mL (or 99-99.9% of organisms) killed was achieved.
(§2) A 1 mL aliquot was removed from each respective solution and mixed for one minute with a 1 mL aliquot of Trypticase Soy Broth, then 8 mL of sterile water was added and mixed. Aliquots (1 mL) were then removed from each solution and lawn-inoculated by flooding onto Horse Blood Agar plates for 24-48 hours incubation at 37° C. Visual counts of bacterial growth on the plates were performed.
(§3) Successive generations of E. coli, S. aureus or P. aeruginosa respectively were cultivated via their selection through repeated exposure to a copolymer or Amoxicillin; Organisms surviving treatment were harvested for another cycle of treatment—this process being repeated up to 25 times.

[2] = tested on: S. aureus; type: cell-based
Protocol: as §1, §2, §3

[3] = tested on: P. aeruginosa; type: cell-based; details: with broth
Protocol: Three test organisms—E. coli, S. aureus and P. aeruginosa—were respectively inoculated to achieve an approximate concentration 10^6 cfu/mL in the test solutions; the test solutions each comprised 19 g sterile distilled water, 1 mL trypticase soy broth and copolymer (Example 1; 383 mg; 5.4% w/w on acrolein added) or Comparative Example 1; 303 mg; 6.7% w/w solution on acrolein added). The inoculated test solutions, pH 6.5 to 7.0 were then incubated at 37° C. for sufficient time-periods such that approximately 10^2-10^3 cfu/mL (or 99-99.9% of organisms) killed was achieved.
as §2, §3

[4] = tested on: MRSA (S. aureus USA300); assay: Example 9: curative treatment by tail injection of infected mice; type: in vivo, BALB/c mice; details: 1 to 7 scale (1 alert and healthy); tail injection 24 hours after infection; Example 1 132 mg/Kg, Comparative Example 1 167 mg/Kg, Oxacillin 500 mg/Kg
Protocol: All experiments were prior-audited, and then supervised to comply with international standards to ensure humane treatment of the animals. All experiments were performed in independent laboratories. In particular, all experiments in Examples 6, 7 and 8 were done in USA within pre-designed protocols specifically to research sepsis and bacteremia; protocols were “blinded” of the identity of test-solutions, to both the supervisor and assistants. All infections were in 100 μL, designed to result in approximately 10^7 cfu/mL infection of mouse-blood; mice were type BALB/c—ten per group in each experiment. Mice were assessed by either sacrifice followed by cfu/g count of bacteria within organ(s), or within a 1 to 7 scale of Health Score, including (1; alert and healthy) to (5; sick and very ruffled coat; euthanized) to (7; deceased). The protocols are tabulated, and follow.
Four groups of each 10 mice were infected with S. aureus superbug (S. aureus USA300), and 24 hours afterwards each group treated curatively with respectively: The copolymer of Example 1 (Ex 1) MW 500 at 132 mg/Kg of mouse; copolymer MW 2500 Comparative Example 1 (CE 1) at 167 mg/Kg of mouse; positive control Oxacillin, 500 mg/Kg and negative control saline. FIG. 5 is a chart showing the number of mice culled due to morbidity or mortality.

[5] = 0.35% w/w solution of Amoxicillin

SMILES | generation after which bacterial resistance resulted [1, 5] | Number of generations of microbes to resistance ([1]; with broth) | Number of generations of microbes to resistance ([1]; without broth) | generation after which bacterial resistance resulted [2, 5] | Number of generations of microbes to resistance ([2]; with broth) | Number of generations of microbes to resistance ([2]; without broth) | Number of generations of microbes to resistance [3] | Health Score of surviving mice [4]
CC1(C)S[C@@H]2[C@H](NC(=O)[C@H](N)c3ccc(O)cc3)C(=O)N2[C@H]1C(=O)O [Amoxicillin] | second | 8 | 2 | eighth | 10 | 8 | 6 | 
Cc1onc(-c2ccccc2)c1C(=O)N[C@@H]1C(=O)N2[C@@H]1SC(C)(C)[C@@H]2C(=O)O [Oxacillin] |  |  |  |  |  |  |  | 2.5
